From ChEMBL document CHEMBL1201862, “PubChem BioAssay data set” (2004) come the findings set out here.

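All cell lines were grown in 96-well plates and treated with compound for 48 hours. GI50 is the concentration that inhibits growth by half.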 Activity calls are given as the source filed them. Rule as the data show it: active = GI50 up to about 1.1 µM and inactive = higher.

Test systems include UO-31; HT-29; 786-0; MDA-MB-231; RPMI-8226; CCRF-CEM; PC-3; OVCAR-8; MDA-N; ACHN; EKVX; MDA-MB-435; TK-10; HOP-62; NCI-H460; CAKI-1; HCT-116; HL-60; UACC-62; SNB-75.
What all share (assay): NCI anticancer screen, dose series, 48 h

As for `Cc1ccc(/C=C/C(=N/NC(=O)N/N=C(/C=C/c2ccc(C)cc2)C(C)C)C(C)C)cc1`, the GI50 was > 10 µM (inactive) in the assay with UO-31; > 10 µM (inactive) in the assay on HT-29; > 10 µM (inactive) in the assay on 786-0; > 10 µM (inactive) in the assay on MDA-MB-231; 3.11 µM (inactive) in the assay on RPMI-8226; > 10 µM (inactive) in the assay on CCRF-CEM. For the same compound, the GI50 with PC-3, with OVCAR-8, in the assay with MDA-N, in the assay on ACHN, in the assay with EKVX and in the assay with MDA-MB-435 was > 10 µM (inactive) each time. The GI50 was > 10 µM (inactive) in the assay on TK-10; > 10 µM (inactive) in the assay on HOP-62; > 10 µM (inactive) in the assay with NCI-H460; > 10 µM (inactive) in the assay with CAKI-1; 5.24 µM (inactive) with HCT-116; 4.42 µM (inactive) with HL-60.
On to `COc1cc(C#CC(=O)OC/C=C/c2ccc3c(c2)OCO3)cc(OC)c1OC`, for which the GI50 in the assay with UO-31 is 15.6 µM (inactive); in the assay on HT-29, > 100 µM (inactive); in the assay on 786-0 it was 29.8 µM (inactive); in the assay with UACC-62, 18.8 µM (inactive); in the assay with MDA-MB-231, 25.8 µM (inactive); in the assay on RPMI-8226, 20.5 µM (inactive). For the same compound, the GI50 is 18.9 µM (inactive) in the assay with CCRF-CEM; 21.8 µM (inactive) in the assay with PC-3; 29.1 µM (inactive) with OVCAR-8; 18.5 µM (inactive) in the assay with MDA-N; 29.2 µM (inactive) in the assay on ACHN; 31.6 µM (inactive) in the assay with EKVX. The GI50 in the assay with MDA-MB-435 was 18.5 µM (inactive); in the assay on TK-10, 21.4 µM (inactive); in the assay on HOP-62, 24 µM (inactive); in the assay with NCI-H460 it was 24.9 µM (inactive); with CAKI-1, 22.1 µM (inactive); with HCT-116 it was 22.7 µM (inactive). For the same compound, the GI50 in the assay with HL-60 was 36.5 µM (inactive).
Turning to `O=[N+]([O-])C(C(Cl)=C(Cl)Cl)=C(N1CCCCC1)N1CCCCC1`, the GI50 in the assay on UO-31 is 22.1 µM (inactive); in the assay with HT-29, > 100 µM (inactive); with 786-0, > 100 µM (inactive); with UACC-62, > 100 µM (inactive); in the assay on MDA-MB-231, > 100 µM (inactive); in the assay with RPMI-8226 it was 84.1 µM (inactive). For the same compound, the GI50 was 41.9 µM (inactive) with CCRF-CEM; > 100 µM (inactive) with SNB-75; > 100 µM (inactive) with PC-3; > 100 µM (inactive) in the assay on OVCAR-8; 68.2 µM (inactive) with MDA-N; > 100 µM (inactive) in the assay with ACHN. Moreover, the GI50 in the assay with EKVX is > 100 µM (inactive); in the assay with TK-10, > 100 µM (inactive); in the assay on HOP-62 it was > 100 µM (inactive); with NCI-H460, > 100 µM (inactive); with CAKI-1, 58.6 µM (inactive); with HCT-116 it was > 100 µM (inactive). In addition, the GI50 in the assay on HL-60 is 33.4 µM (inactive).
Regarding `N=C1C=C(N)C(=O)c2[nH]c(=O)ccc21`, the GI50 with HT-29 is 2.37 µM (inactive); with 786-0, 1.91 µM (inactive); with UACC-62 it was 2.3 µM (inactive); with MDA-MB-231 it was 1.91 µM (inactive); in the assay with RPMI-8226, 2.15 µM (inactive); in the assay with CCRF-CEM it was 2.36 µM (inactive). Further, the GI50 with PC-3 was 1.36 µM (inactive); in the assay with MDA-N it was 1.01 µM (active); in the assay with ACHN it was 1.73 µM (inactive); in the assay on EKVX, 1.92 µM (inactive); with MDA-MB-435, 1.09 µM (active); in the assay on TK-10, 12.4 µM (inactive). Besides, the GI50 is 1.92 µM (inactive) in the assay on HOP-62; 2.92 µM (inactive) in the assay with NCI-H460; 5.16 µM (inactive) with CAKI-1; 1.1 µM (active) in the assay with HCT-116; 2.63 µM (inactive) in the assay on HL-60.
On to `Oc1cc(-c2cccc(Cl)c2)nc2cc3c(cc12)OCO3`, for which the GI50 in the assay with UO-31 is 0.33 µM (active); with HT-29, 2 µM (inactive); with 786-0 it was 0.294 µM (active); in the assay with UACC-62, 0.201 µM (active); in the assay on MDA-MB-231, 2.44 µM (inactive); with RPMI-8226, 0.498 µM (active). For the same compound, the GI50 is 0.519 µM (active) with CCRF-CEM; 0.258 µM (active) with SNB-75; 0.308 µM (active) in the assay on PC-3; 0.647 µM (active) in the assay with OVCAR-8; 0.0255 µM (active) with MDA-N; 0.402 µM (active) in the assay on ACHN. Moreover, the GI50 in the assay with MDA-MB-435 was 0.0377 µM (active); in the assay on TK-10, 6.31 µM (inactive); in the assay on HOP-62, 0.379 µM (active); in the assay on NCI-H460, 0.274 µM (active); in the assay with HL-60, 0.157 µM (active).
For the compound `CNC(=O)CCNC(=O)CCC(=O)OC`, the GI50 in the assay on UO-31, with HT-29, in the assay on 786-0, in the assay on UACC-62, with MDA-MB-231 and with PC-3 was > 100 µM (inactive) in each case. Moreover, the GI50 in the assay on OVCAR-8, in the assay on MDA-N, with ACHN, in the assay on MDA-MB-435, with TK-10 and in the assay on HOP-62 was > 100 µM (inactive) in each case. Also, the GI50 with NCI-H460, in the assay with CAKI-1 and with HCT-116 was > 100 µM (inactive) in each case.
Take `CC[C@]12C=CCN3CCC4(c5cc([C@@]6(C(=O)OC)CC7CN(CCc8c6[nH]c6ccccc86)C[C@@H]6CCCC[C@H]76)c(OC)cc5N(C)C4[C@](O)(C(=O)OC)C1OC(C)=O)[C@@H]32` (stereo partly specified): the GI50 in the assay on UO-31 is < 0.0299 µM (active); with HT-29, < 0.01 µM (active); with 786-0 it was < 0.01 µM (active); with UACC-62, < 0.01 µM (active); with MDA-MB-231, < 0.01 µM (active); in the assay with RPMI-8226, < 0.01 µM (active). The GI50 with CCRF-CEM, with PC-3, with OVCAR-8, in the assay on MDA-N, in the assay with ACHN and in the assay with MDA-MB-435 was < 0.01 µM (active) throughout. Besides, the GI50 with TK-10, with HOP-62, with NCI-H460, in the assay on HCT-116 and in the assay on HL-60 was < 0.01 µM (active) in each case.
As to `O=C(NC(Nc1ccc(F)c(Cl)c1)(C(F)(F)F)C(F)(F)F)C(C(F)(F)F)C(F)(F)F`, the GI50 in the assay with UO-31 was 19.5 µM (inactive); in the assay with HT-29, 21.9 µM (inactive); in the assay on 786-0, 30.5 µM (inactive); with MDA-MB-231 it was 28.3 µM (inactive); with RPMI-8226, 20 µM (inactive); with CCRF-CEM it was 22.1 µM (inactive). Further, the GI50 in the assay with PC-3 is 24.8 µM (inactive); in the assay with OVCAR-8 it was 25.9 µM (inactive); in the assay on MDA-N it was 28.5 µM (inactive); in the assay with ACHN it was 13.5 µM (inactive); in the assay with EKVX, 68.4 µM (inactive); in the assay with MDA-MB-435, 26.5 µM (inactive). Further, the GI50 in the assay with TK-10 was 36.4 µM (inactive); with HOP-62, > 100 µM (inactive); in the assay with NCI-H460 it was 36.1 µM (inactive); in the assay with CAKI-1, 32.4 µM (inactive); with HCT-116, 16 µM (inactive); in the assay with HL-60, 15.6 µM (inactive).
`C=C1C(=O)O[C@@H]2[C@H]1CC[C@H](C)[C@]1(O)CCC(=O)[C@@]21C` [CORONOPILIN]: the GI50 in the assay on UO-31 was 0.0094 µM (active); in the assay on HT-29, > 10 µM (inactive); with 786-0 it was > 10 µM (inactive); in the assay on UACC-62, > 10 µM (inactive); with RPMI-8226 it was > 10 µM (inactive); with CCRF-CEM it was 4.69 µM (inactive). The GI50 in the assay on SNB-75, with PC-3, in the assay with OVCAR-8, in the assay on MDA-N, in the assay on EKVX and with MDA-MB-435 was > 10 µM (inactive) each time. The GI50 is > 10 µM (inactive) in the assay on TK-10, > 10 µM (inactive) in the assay with HOP-62, > 10 µM (inactive) with HCT-116 and 3.66 µM (inactive) in the assay on HL-60.
In the case of `O=C(O)Cn1nnc2c(=O)[nH][nH]c(=O)c21`, the GI50 in the assay on UO-31, with HT-29, with 786-0, in the assay with MDA-MB-231, in the assay on RPMI-8226 and in the assay with CCRF-CEM was > 100 µM (inactive) each time. Besides, the GI50 in the assay with OVCAR-8, in the assay on MDA-N, in the assay with ACHN, in the assay with EKVX, in the assay with MDA-MB-435 and in the assay on TK-10 was > 100 µM (inactive) throughout. The GI50 with HOP-62, in the assay with NCI-H460, in the assay with CAKI-1, in the assay on HCT-116 and with HL-60 was > 100 µM (inactive) in each case.
Consider `COC(=O)[C@H]1ON2O[C@@H](O[C@H]3CCCC[C@@H]3C(C)(C)c3ccccc3)C[C@@H]3CC[C@H]1[C@@]32C`, for which the GI50 with UO-31, with HT-29, in the assay on 786-0, in the assay with UACC-62, in the assay with RPMI-8226 and in the assay with CCRF-CEM was > 100 µM (inactive) each time. In addition, the GI50 with SNB-75, in the assay on OVCAR-8, in the assay with MDA-N, with ACHN, in the assay on EKVX and in the assay on MDA-MB-435 was > 100 µM (inactive) throughout. Besides, the GI50 with TK-10, in the assay with HOP-62, with NCI-H460, with CAKI-1, with HCT-116 and with HL-60 was > 100 µM (inactive) each time.
